Reference: patent US20060258754A1, “Method of treating endothelial dysfunction, oxidative stress and related diseases” (priority 2004, published 2006)

Experiments:
[1] = Blood glucose and serum triglycerides after chronic administration in alloxan diabetic rats; type: in vivo, alloxan induced diabetic rats; settings: 20 mg/kg 2× daily for 4 weeks
Source text: The use of DCI and its derivative for the treatment of a variety of metabolic disorders, more specifically those that are related to insulin resistance have been the subject matter of patents and publications. The treatment of insulin resistance in humans by the administration of DCI was the subject matter of U.S. Pat. No. 5,124,360. Since DCI is found in the food chain it has a safety profile that warrants its use as a nutritional supplement. A method of treating a cluster of diseases with elevated blood sugar by the administration of a dietary supplement of DCI was the subject of U.S. Pat. No. 5,428,066.
Male Wistar rats, weighing between 230-250 g, fed regular chow, with free access to water were separated in four groups (n=10/each). The first two groups, termed normoglycemic, were treated with saline (0.1 mL/100 g/12 h) by the oral route (intragastric gavage) or untreated for four weeks. The second two groups, hyperglycemic, were treated with saline (0.1 mL/100 g/12 h) or treated with D-chiro-inositol (20 mg/kg/12 h) under the same protocol. […] Diabetes was induced by a single intravenous injection of 45 mg/kg alloxan as described by Sannomiya et al., 1997 ( ). Diabetes was diagnosed 96 h after injection by blood glucose assay >200 mg/dL. […]

[2] = several publications; cited from earlier work
[3] = human PCOS; cited from earlier work
aortic rings = assay: Acute incubation of diabetic rabbit aortic rings: acetylcholine relaxation; set-up: species or system alloxan-diabetic rabbits; settings: acute incubation 1 μM, medium and higher concentrations of acetyl choline, FIG. 7
Protocol: Male California rabbits, weighing 2-2.5 kg, were provided by the vivarium of the Biomedicine Institute-UFC. Diabetes was induced by intraperitoneal injection of alloxan (150 mg/kg) and only animals with plasma glucose concentration above 200 mg/dl were included in the study. Age-matched euglycemic rabbits were used as controls.
Kidneys and aortic rings are harvested from diabetic rabbits after 3 weeks of alloxan injection. They are perfused with KHS containing 1 μM D-chiro-inositol, pinitol, dibutyryl D-chiro-inositol, myo-inositol or saline for 1 hour. Dose response curves for acetylcholine are then performed following prior phenylephrine vasoconstriction as described. At least 6 separate experiments will be performed each in duplicate.
Kidneys and aortic rings were harvested from diabetic rabbits after 3 weeks of alloxan injection. The animals were sacrificed under sodium pentobarbital anesthesia (Hypnol®, 150-200 mg/kg). […]. Rabbit kidneys were obtained from male New Zealand rabbits (1-1.5 kg) after cannulation of the renal artery in situ. […] The alterations in perfusion pressure are continuously recorded in a four-channel polygraph (Narco Biosystems, Houston, Tex., USA) by means of a pressure transducer (P23 Gould Stratham, Oxnard, Calif., USA). […]

diabetic RbCC = assay: Relaxant response of diabetic RbCC to NO and Ach after in vitro inositol addition; settings: in vitro inositol addition (one hour)
Protocol: NO action was investigated in aortic rings and RbCC. […] The data in FIGS. 14 are expressed as mean±SEM of 5 experimental units. * p<0.05, ANOVA followed by Tukey-Kramer, diab (C) vs. Inositol treated. # p<0.05, ANOVA followed by Tukey-Kramer, Eugly vs. Inositol treated. In FIG. 14, Veh=vehicle; C=diabetic control; Diab=diabetic control; Eugly=euglycemic tissue. Relaxation was restored toward or to normal by incubation with inositols.

Structure (SMILES)	blood glucose [1]	serum triglycerides [1]	hyperglycemia, triglyceridemia and glucose disposal [2]	ovulation, glucose tolerance and metabolic balance in PCOS [3]	restoring vasorelaxant effect in aortic rings (aortic rings)	restoring vasorelaxant effect in aortic rings (aortic rings; listed as dibutyryl D-chiro-inositol)	relaxant response to graded concentrations of NO and to Ach (diabetic RbCC)
OC1C(O)C(O)C(O)C(O)C1O [DCI, D-chiro-inositol]	decreased	decreased	effective decrease of hyperglycemia, triglyceridemia and enhanced glucose disposal	effective in human PCOS in restoring ovulation, glucose tolerance and metabolic balance			
CCCC(=O)O[C@@H]1[C@@H](O)[C@@H](O)[C@H](O)[C@H](O)[C@H]1OC(=O)CCC [dbDCI, 3,4-dibutyryl-D-chiroinositol]					more effective than myoinositol	clearly more effective than myo-inositol	more effective than the other three inositols
